Results taken from patent EP4094756A1 (priority 2021, dated 2022).

Test system: SARS-CoV-2 VOC (Alpha, Beta, and Delta)
Assay: SARS-CoV2 VOC testing in Vero cells, standard plaque assay
Format: cell-based

Cc1cc(O)c2c(=O)c3c(O)cc(O)c4c5c(O)cc(O)c6c(=O)c7c(O)cc(C)c8c1c2c(c34)c(c78)c65 [Hypericin, hypericin]
drop of virus titers in comparison to DMSO-treated controls: 3-5 log steps
